# Laboratory results: US20240025884A1 (Dong-A ST Co., Ltd., priority 2022, published 2024)
# Molecular target: GCN2 (Homo sapiens (Human), UniProt Q9P2K8)
# Test: GCN2 Biochemical Assay (TR-FRET, GFP-eIF2S1 substrate phosphorylation)
# Conditions: read-out: IC50 (GCN2 Inhibitory Activity)
# Summary of the method: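 TR-FRET readout (Ex 340, Em 490/520 nm) after 2–3 h with Tb-labelled phospho-eIF2S1 antibody in stop mix, following a 70 min room-temperature kinase step. Reaction: in-house GCN2, GFP-eIF2S1, ATP, tRNA in Tris pH 7.5 (2× stocks 1.6 nM, 50 nM, 0.2 mM); compounds tested at 10 concentrations, with a phospho-substrate artifact counter-plate.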
# GCN2, sequence (Q9P2K8 whole entry): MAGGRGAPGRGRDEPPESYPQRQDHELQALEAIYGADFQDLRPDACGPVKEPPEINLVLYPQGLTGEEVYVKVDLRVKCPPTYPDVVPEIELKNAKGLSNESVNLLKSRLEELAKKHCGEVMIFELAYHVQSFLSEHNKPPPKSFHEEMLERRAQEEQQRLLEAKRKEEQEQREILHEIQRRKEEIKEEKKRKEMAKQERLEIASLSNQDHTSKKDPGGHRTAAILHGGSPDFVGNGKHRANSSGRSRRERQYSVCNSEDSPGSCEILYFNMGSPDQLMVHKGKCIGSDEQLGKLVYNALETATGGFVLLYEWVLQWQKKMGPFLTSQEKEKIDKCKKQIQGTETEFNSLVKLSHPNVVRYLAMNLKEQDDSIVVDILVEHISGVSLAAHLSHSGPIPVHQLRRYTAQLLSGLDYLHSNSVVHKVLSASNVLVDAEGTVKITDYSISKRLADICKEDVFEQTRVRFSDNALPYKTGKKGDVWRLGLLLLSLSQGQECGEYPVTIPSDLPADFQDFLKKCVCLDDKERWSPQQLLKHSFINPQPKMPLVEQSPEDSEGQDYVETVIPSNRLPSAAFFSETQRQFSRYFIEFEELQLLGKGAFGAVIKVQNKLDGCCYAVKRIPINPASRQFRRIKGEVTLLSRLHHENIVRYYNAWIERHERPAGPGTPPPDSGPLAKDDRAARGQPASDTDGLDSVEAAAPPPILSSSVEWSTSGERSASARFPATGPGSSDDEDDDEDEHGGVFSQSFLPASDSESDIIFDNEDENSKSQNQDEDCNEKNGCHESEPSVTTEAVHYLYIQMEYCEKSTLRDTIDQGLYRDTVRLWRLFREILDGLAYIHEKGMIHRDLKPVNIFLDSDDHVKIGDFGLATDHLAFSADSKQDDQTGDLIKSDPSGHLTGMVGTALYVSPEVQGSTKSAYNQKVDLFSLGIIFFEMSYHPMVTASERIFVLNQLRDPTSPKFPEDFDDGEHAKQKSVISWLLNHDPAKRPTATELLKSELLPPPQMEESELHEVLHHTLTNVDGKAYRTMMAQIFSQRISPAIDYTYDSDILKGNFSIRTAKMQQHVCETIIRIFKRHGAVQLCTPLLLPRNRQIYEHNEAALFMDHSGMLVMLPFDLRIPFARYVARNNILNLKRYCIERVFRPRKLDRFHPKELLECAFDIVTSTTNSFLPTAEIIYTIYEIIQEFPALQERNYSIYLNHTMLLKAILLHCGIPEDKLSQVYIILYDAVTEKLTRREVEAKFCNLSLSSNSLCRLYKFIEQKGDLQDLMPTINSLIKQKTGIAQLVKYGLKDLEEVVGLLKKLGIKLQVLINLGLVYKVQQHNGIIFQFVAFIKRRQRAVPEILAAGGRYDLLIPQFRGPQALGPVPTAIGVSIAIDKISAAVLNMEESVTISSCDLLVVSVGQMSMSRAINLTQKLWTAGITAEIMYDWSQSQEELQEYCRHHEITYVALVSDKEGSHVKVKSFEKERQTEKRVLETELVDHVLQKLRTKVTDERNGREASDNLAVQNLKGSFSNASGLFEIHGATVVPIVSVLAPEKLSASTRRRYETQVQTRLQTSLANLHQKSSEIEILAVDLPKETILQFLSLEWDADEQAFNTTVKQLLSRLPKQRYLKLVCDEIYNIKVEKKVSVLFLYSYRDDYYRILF
row,IC50,Compound
1,< 10 nM,"Cc1cnc(Nc2cc(C)n(C)n2)nc1-c1c[nH]c2c(N3Cc4c(cccc4-c4ccnc(O)c4)C3=O)cccc12 [Example 446, 2-(3-(2-((1,5-dimethyl-1H-pyrazol-3-yl)amino)-5-methylpyrimidin-4-yl)-1H-indol-7-yl)-4-(2-hydroxypyridin-4-yl)isoindolin-1-one]"
2,< 10 nM,"Cc1cnc(Nc2cc(C)n(C)n2)nc1-c1c[nH]c2c(N3Cc4c(cccc4-c4ccncc4N)C3=O)cccc12 [Example 447, 4-(3-aminopyridin-4-yl)-2-(3-(2-((1,5-dimethyl-1H-pyrazol-3-yl)amino)-5-methylpyrimidin-4-yl)-1H-indol-7-yl)isoindolin-1-one]"
3,< 10 nM,"Cc1cnc(Nc2cc(C)n(C)n2)nc1-c1c[nH]c2c(N3Cc4c(cccc4-c4ccc5ccncc5c4)C3=O)cccc12 [Example 448, 2-(3-(2-((1,5-dimethyl-1H-pyrazol-3-yl)amino)-5-methylpyrimidin-4-yl)-1H-indol-7-yl)-4-(isoquinolin-7-yl)isoindolin-1-one]"
4,10 to 100 nM,"Cc1cnc(Nc2cc(C)n(C)n2)nc1-c1c[nH]c2c(N3Cc4c(cccc4-c4ccc5c(cnn5C)c4)C3=O)cccc12 [Example 449, 2-(3-(2-((1,5-dimethyl-1H-pyrazol-3-yl)amino)-5-methylpyrimidin-4-yl)-1H-indol-7-yl)-4-(i-methyl-1H-indazol-5-yl)isoindolin-1-one]"
5,10 to 100 nM,"Cc1cnc(Nc2cc(C)n(C)n2)nc1-c1c[nH]c2c(N3Cc4c(cccc4-c4ccc5cnn(C)c5c4)C3=O)cccc12 [Example 450, 2-(3-(2-((1,5-dimethyl-1H-pyrazol-3-yl)amino)-5-methylpyrimidin-4-yl)-1H-indol-7-yl)-4-(i-methyl-1H-indazol-6-yl)isoindolin-1-one]"
6,10 to 100 nM,"Cc1ccc(-c2cccc3c2CN(c2cccc4c(-c5nc(Nc6cc(C)n(C)n6)ncc5C)c[nH]c24)C3=O)s1 [Example 451, 2-(3-(2-((1,5-dimethyl-1H-pyrazol-3-yl)amino)-5-methylpyrimidin-4-yl)-1H-indol-7-yl)-4-(5-methylthiophen-2-yl)isoindolin-1-one]"
7,100 to 1000 nM,"Cc1cnc(Nc2cc(C)n(C)n2)nc1-c1c[nH]c2c(N3Cc4c(cccc4-c4ccc5c(c4)CCC5)C3=O)cccc12 [Example 452, 4-(2,3-dihydro-1H-inden-5-yl)-2-(3-(2-((1,5-dimethyl-1H-pyrazol-3-yl)amino)-5-methylpyrimidin-4-yl)-1H-indol-7-yl)isoindolin-1-one]"
8,10 to 100 nM,"Cc1cscc1-c1cccc2c1CN(c1cccc3c(-c4nc(Nc5cc(C)n(C)n5)ncc4C)c[nH]c13)C2=O [Example 453, 2-(3-(2-((1,5-dimethyl-1H-pyrazol-3-yl)amino)-5-methylpyrimidin-4-yl)-1H-indol-7-yl)-4-(4-methylthiophen-3-yl)isoindolin-1-one]"
9,< 10 nM,"Cc1cc(-c2ccc(F)c3c2CN(c2cccc4c(-c5nc(Nc6cc(C)n(C)n6)ncc5C)c[nH]c24)C3=O)ccn1 [Example 454, 2-(3-(2-((1,5-dimethyl-1H-pyrazol-3-yl)amino)-5-methylpyrimidin-4-yl)-1H-indol-7-yl)-7-fluoro-4-(2-methylpyridin-4-yl)isoindolin-1-one]"
10,< 10 nM,"Cc1cnccc1-c1cccc2c1CN(c1cccc3c(-c4nc(Nc5cc(C)n(C)n5)ncc4C)c[nH]c13)C2=O [Example 455, 2-(3-(2-((1,5-dimethyl-1H-pyrazol-3-yl)amino)-5-methylpyrimidin-4-yl)-1H-indol-7-yl)-4-(3-methylpyridin-4-yl)isoindolin-1-one]"
11,< 10 nM,"Cc1cnc(Nc2cc(C)n(C)n2)nc1-c1c[nH]c2c(N3Cc4c(cccc4-c4cc(N)ncn4)C3=O)cccc12 [Example 456, 4-(6-aminopyrimidin-4-yl)-2-(3-(2-((1,5-dimethyl-1H-pyrazol-3-yl)amino)-5-methylpyrimidin-4-yl)-1H-indol-7-yl)isoindolin-1-one]"
12,< 10 nM,"Cc1cnc(Nc2cc(C)n(C)n2)nc1-c1c[nH]c2c(N3Cc4c(cccc4-c4cccc5[nH]ncc45)C3=O)cccc12 [Example 457, 2-(3-(2-((1,5-dimethyl-1H-pyrazol-3-yl)amino)-5-methylpyrimidin-4-yl)-1H-indol-7-yl)-4-(1H-indazol-4-yl)isoindolin-1-one]"
13,10 to 100 nM,"Cc1cnc(Nc2cc(C)n(C)n2)nc1-c1c[nH]c2c(N3Cc4c(cccc4-c4ccccc4C(=O)O)C3=O)cccc12 [Example 458, 2-(2-(3-(2-((1,5-dimethyl-1H-pyrazol-3-yl)amino)-5-methylpyrimidin-4-yl)-1H-indol-7-yl)-1-oxoisoindolin-4-yl)benzoic acid]"
14,< 10 nM,"Cc1cnc(Nc2cc(C)n(C)n2)nc1-c1c[nH]c2c(N3Cc4c(cccc4-c4ccc(CO)cc4)C3=O)cccc12 [Example 460, 2-(3-(2-((1,5-dimethyl-1H-pyrazol-3-yl)amino)-5-methylpyrimidin-4-yl)-1H-indol-7-yl)-4-(4-(hydroxymethyl)phenyl)isoindolin-1-one]"
15,10 to 100 nM,"Cc1cnc(Nc2cc(C)n(C)n2)nc1-c1c[nH]c2c(N3Cc4c(cccc4-c4ccsc4)C3=O)cccc12 [Example 461, 2-(3-(2-((1,5-dimethyl-1H-pyrazol-3-yl)amino)-5-methylpyrimidin-4-yl)-1H-indol-7-yl)-4-(thiophen-3-yl)isoindolin-1-one]"
16,10 to 100 nM,"Cc1cnc(Nc2cc(C)n(C)n2)nc1-c1c[nH]c2c(N3Cc4c(cccc4-c4ccccc4N)C3=O)cccc12 [Example 462, 4-(2-aminophenyl)-2-(3-(2-((1,5-dimethyl-1H-pyrazol-3-yl)amino)-5-methylpyrimidin-4-yl)-1H-indol-7-yl)isoindolin-1-one]"
17,100 to 1000 nM,"COC(=O)c1ccccc1-c1cccc2c1CN(c1cccc3c(-c4nc(Nc5cc(C)n(C)n5)ncc4C)c[nH]c13)C2=O [Example 463, methyl 2-(2-(3-(2-((1,5-dimethyl-1H-pyrazol-3-yl)amino)-5-methylpyrimidin-4-yl)-1H-indol-7-yl)-1-oxoisoindolin-4-yl)benzoate]"
18,< 10 nM,"Cc1cnc(Nc2cc(C)n(C)n2)nc1-c1c[nH]c2c(N3Cc4c(cccc4C4=CCN(C)CC4)C3=O)cccc12 [Example 464, 2-(3-(2-((1,5-dimethyl-1H-pyrazol-3-yl)amino)-5-methylpyrimidin-4-yl)-1H-indol-7-yl)-4-(i-methyl-1,2,3,6-tetrahydropyridin-4-yl)isoindolin-1-one]"
19,< 10 nM,"Cc1cnc(Nc2cc(C)n(C)n2)nc1-c1c[nH]c2c(N3Cc4c(cccc4C4=CCN(S(C)(=O)=O)CC4)C3=O)cccc12 [Example 465, 2-(3-(2-((1,5-dimethyl-1H-pyrazol-3-yl)amino)-5-methylpyrimidin-4-yl)-1H-indol-7-yl)-4-(1-(methylsulfonyl)-1,2,3,6-tetrahydropyridin-4-yl)isoindolin-1-one]"
20,< 10 nM,"CC(=O)N1CC=C(c2cccc3c2CN(c2cccc4c(-c5nc(Nc6cc(C)n(C)n6)ncc5C)c[nH]c24)C3=O)CC1 [Example 466, 4-(1-acetyl-1,2,3,6-tetrahydropyridin-4-yl)-2-(3-(2-((1,5-dimethyl-1H-pyrazol-3-yl)amino)-5-methylpyrimidin-4-yl)-1H-indol-7-yl)isoindolin-1-one]"
21,< 10 nM,"Cc1cnc(Nc2cc(C)n(C)n2)nc1-c1c[nH]c2c(N3Cc4c(cccc4C4=CCN(C(N)=O)CC4)C3=O)cccc12 [Example 467, 4-(2-(3-(2-((1,5-dimethyl-1H-pyrazol-3-yl)amino)-5-methylpyrimidin-4-yl)-1H-indol-7-yl)-1-oxoisoindolin-4-yl)-3,6-dihydropyridine-1(2H)-carboxamide]"
22,< 10 nM,"Cc1cnc(Nc2cc(C)n(C)n2)nc1-c1c[nH]c2c(N3Cc4c(cccc4C4=CCS(=O)(=O)CC4)C3=O)cccc12 [Example 468, 2-(3-(2-((1,5-dimethyl-1H-pyrazol-3-yl)amino)-5-methylpyrimidin-4-yl)-1H-indol-7-yl)-4-(1,1-dioxido-3,6-dihydro-2H-thiopyran-4-yl)isoindolin-1-one]"
23,< 10 nM,"Cc1cnc(Nc2cc(C)n(C)n2)nc1-c1c[nH]c2c(N3Cc4c(cccc4-c4ccnc(C#N)c4)C3=O)cccc12 [Example 469, 4-(2-(3-(2-((1,5-dimethyl-1H-pyrazol-3-yl)amino)-5-methylpyrimidin-4-yl)-1H-indol-7-yl)-1-oxoisoindolin-4-yl)picolinonitrile]"
24,< 10 nM,"Cc1cnc(Nc2cc(C)n(C)n2)nc1-c1c[nH]c2c(N3Cc4c(cccc4-c4ccc(C#N)nc4)C3=O)cccc12 [Example 470, 5-(2-(3-(2-((1,5-dimethyl-1H-pyrazol-3-yl)amino)-5-methylpyrimidin-4-yl)-1H-indol-7-yl)-1-oxoisoindolin-4-yl)picolinonitrile]"
25,< 10 nM,Cc1cnc(Nc2cc(C)n(C)n2)nc1-c1c[nH]c2c(N3Cc4c(cccc4-c4ccncc4CO)C3=O)cccc12 [Example 471]
26,< 10 nM,"Cc1cnc(Nc2cc(C)n(C)n2)nc1-c1c[nH]c2c(N3Cc4c(cccc4-c4ccnc(CO)c4)C3=O)cccc12 [Example 472, 2-(3-(2-((1,5-dimethyl-1H-pyrazol-3-yl)amino)-5-methylpyrimidin-4-yl)-1H-indol-7-yl)-4-(2-(hydroxymethyl)pyridin-4-yl)isoindolin-1-one]"
27,< 10 nM,"Cc1cnc(Nc2cc(C)n(C)n2)nc1-c1c[nH]c2c(N3Cc4c(cccc4-c4ccnc(C(N)=O)c4)C3=O)cccc12 [Example 473, 4-(2-(3-(2-((1,5-dimethyl-1H-pyrazol-3-yl)amino)-5-methylpyrimidin-4-yl)-1H-indol-7-yl)-1-oxoisoindolin-4-yl)picolinamide]"
28,< 10 nM,"Cc1cnc(Nc2cc(C)n(C)n2)nc1-c1c[nH]c2c(N3Cc4c(cccc4-c4ccc(C(N)=O)nc4)C3=O)cccc12 [Example 474, 5-(2-(3-(2-((1,5-dimethyl-1H-pyrazol-3-yl)amino)-5-methylpyrimidin-4-yl)-1H-indol-7-yl)-1-oxoisoindolin-4-yl)picolinamide]"
